Test results taken from patent US10426168B2, “Agent for controlling noxious arthropods” (Sumitomo Chemical Company, Limited, priority 2015, dated 2019).

What follows are molecules tested on common house mosquitoes (Culex pipens pallens) at the last instar larval stages (assay: Test Example 2: mortality of common house mosquito larvae in treated water). Conditions: 24 h, 3.5 ppm in water, 30 last instar larvae, after 1 day.
Type: in vivo
Procedure: Each of the formulations that were prepared in Formulation Example 15 containing Present compounds (1), (2), (3) and (4) was diluted with water so as to make a concentration of each of the compound 500 ppm, to obtain a diluted solution containing Present compounds (1), (2), (3) and (4), respectively. The above-mentioned diluted solutions were added to 100 mL of ion-exchanged water (Concentrations of Present compounds were 3.5 ppm). Thirty (30) heads of common house mosquitoes (Culex pipens pallens) at the last instar larval stages were released into the resulting diluted solutions having the concentration of 3.5 ppm, and after 1 day, the life and death of the insects were examined, and the mortality of insects was calculated by the following equation. Mortality (%)=(Number of the dead insects/Number of test insects)×100
In the case of `CC(C)(N)CNC(=O)c1cc(COCc2ccccc2)on1` [(1)], the mortality at 3.5 ppm was at least 91%. `CC(C)(N)CNC(=O)c1cc(COCc2ccc3ccccc3c2)on1` [(2)] showed a mortality at 3.5 ppm of at least 91%. For `CCCCc1cc(C(=O)NCC(C)(C)N)no1` [(3)], the mortality at 3.5 ppm was at least 91%. `CCCCc1cc(C(=O)NC(C)(C)C(C)(C)N)no1` [(4)] was tested, and the mortality at 3.5 ppm was at least 91%.
